From US4076947A, “Cycloalkyl and cycloalkenyl prostaglandin congeners” (American Cyanamid Company, priority 1977, dated 1978)
Read-outs that look alike come from different tables or passages of the source.

Tests used:
Assay type in all cases: in vivo
[1] = test system: bronchospasms elicited by intravenous injections of histamine; experiment: Bronchodilator activity, Konzett procedure, against histamine; settings: three logarithmic cumulative intravenous doses, guinea pigs
Method: (§1) Bronchodilator activity was determined in guinea pigs against bronchospasms elicited by intravenous injections of 5-hydroxytryptamine, histamine or acetylcholine by the Konzett procedure. [See J. Lulling, P. Lievens, F. El Sayed and J. Prignot, Arzneimittel-Forschung, 18, 995 (1968)].
(§2) In the Table which follows bronchodilator activity for representative compounds of this invention against one or more of three spasmogenic agents is expressed as an ED50 determined from the results obtained with three logarithemic cumulative intravenous doses.

[2] = test system: bronchospasms elicited by intravenous injections of acetylcholine; experiment: Bronchodilator activity, Konzett procedure, against acetylcholine; settings: Cavia porcellus, three logarithmic cumulative intravenous doses, guinea pigs, read-out: ED50, spasmogenic agent acetyl choline
Method: as §1, §2

[3] = test system: bronchospasms elicited by intravenous injections of 5-hydroxytryptamine; experiment: Bronchodilator activity, Konzett procedure, against 5-hydroxytryptamine; settings: Cavia porcellus, three logarithmic cumulative intravenous doses, guinea pigs, read-out: ED50, spasmogenic agent 5-hydroxytryptamine
Method: as §1, §2

[4] = test system: ulcerogenic properties of indomethacin; experiment: Protection against indomethacin-induced gastric ulcers in rats (ulcer score); settings: total oral dose 6.25 mg./kg. in two halves; indomethacin 20 mg./kg. s.c.; scale 0-4; control score 3.0; lowering by 0.5 or more = active
Excerpt: The novel compounds of the present invention have potential utility as hypotensive agents, anti-ulcer agents, agents for the treatment of gastric hypersecretion and gasteric erosion, bronchodilators, abortifacients, agents for the induction of labor, agents for the induction of menses, fertility-controlling agents, central nervous system regulatory agents, salt and water-retention regulatory agents, diuretics, fat metabolic regulatory agents, serum-cholesterol lowering agents, anti-inflammatory agents and as agents for the inhibition of platelet aggregation. […] The compounds of this invention provide protection against the ulcerogenic properties of indomethacin. A measure of this utility which also measures potential anti-ulcer properties is the assay which follows.
Rats were starved for 48 hours (water was given ad libitum). Indomethacin (20 mg./kg. of body weight) was administered by the subcutaneous route and one-half the dose of the test compound was administered by gavage at the same time. After three hours, the second half of the test compound was administered also by gavage. Five hours after the administration of indomethacin the animals were decapitated and the stomachs removed. The stomachs were washed with distilled water, blotted on gauze, cut along the larger curvature, and the contents rinsed with distilled water. […]

Row | Structure (SMILES) | ED50 [2] [mg/kg] | ED50 [3] [mg/kg] | Score, Treated [4] | also measured
1 | O=C(O)CCCCCCC1C(=O)C=CC1C=CC(O)CC1CCCC1 (stereo not drawn) [d,1-9-oxo-15-hydroxy-17,20-methano-10,13-trans-prostadienoic acid] | 0.292 | 0.0546 | – | ED50 ([1]; Cavia porcellus, iv, read-out: ED50, spasmogenic agent histamine): 0.041 mg/kg
2 | O=C(O)CCCCCCC1C(=O)CC(O)C1C=CC(O)CC1CCCC1 (stereo not drawn) [d,l 9-oxo-11α,15-dihydroxy-17,20-methano-13-trans-prostenoic acid] | 0.0013 | 0.0018 | – | –
3 | O=C(O)CCCCCCC1C(=O)CC(O)C1C=CC(O)CC1CCCC1 (stereo not drawn) [d,l 9-oxo-11α,15-dihydroxy-17,20-methano-13-trans-prostenoic] [d,l 9-oxo-11α,15-dihydroxy-17,20-methano-13-trans-prostenoic acid] | – | – | 1.5 | ED50, spasmogenic agent histamine ([1]; listed as d,1-9-oxo-11α-15-dihydroxy-17,20-methano-13-trans-prostenoic acid): 0.000444 mg/kg
4 | O=C(O)CCCCCCC1C(=O)CC(O)C1C=CC(O)CC1CCCC1 (stereo not drawn) [d,l 9-oxo-11α,15-epi-dihydroxy-17,20-methano-13-trans-proste] [d,l 9-oxo-11α,15-epi-dihydroxy-17,20-methano-13-trans-prostenoic acid] | – | – | 2.3 | ED50, spasmogenic agent histamine ([1]; listed as d,1-9-oxo-11α-15-epi-dihydroxy-17,20-methano-13-trans-prostenoic acid): 0.042 mg/kg
5 | O=C(O)CCCCCCC1C(=O)CC(O)C1C=CC(O)CC1CCCC1 (stereo not drawn) [d,l 9-oxo-11α,15-epi-dihydroxy-17,20-methano-13-trans-prostenoic acid] | – | – | – | ED50 ([3]; no power of ten printed): 0.228 mg/kg
